# Laboratory results reported in patent publication US9695155B2, “Herbicidal substituted pyrimidinyloxy benzene compounds” (E. I. DU PONT DE NEMOURS AND COMPANY, priority 2013, dated 2017).
# What was measured:
# [1] = test system: soybean; experiment: Test C preemergence; type: in vivo, Glycine max
# How it was run: (§1)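 Preemergence: seeds sown in a loam soil–sand blend and sprayed with test chemical in a non-phytotoxic solvent mixture containing surfactant. Postemergence: plants at 2 to 18 cm (1- to 4-leaf stage) in peat-based medium, treated with the same formulation. Greenhouse 13 to 15 days, then visual rating 0 (no effect) to 100 (complete control).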
# [2] = test system: wheat, winter; experiment: Test C preemergence; type: in vivo, Triticum aestivum
# How it was run: as §1
# [3] = test system: velvetleaf; experiment: Test A postemergence; type: in vivo, Abutilon theophrasti; conditions: 0 to 100 scale where 0 is no effect and 100 is complete control
# How it was run: (§2)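 Pre- and postemergence greenhouse screen. Soil: loam + sand. Spray carrier: solvent mixture, non-phytotoxic, with surfactant. Post timing at 1–2 leaves, height 2–10 cm. Readout: visual injury on a 0–100 scale roughly 10 days after application, untreated plants as reference.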
# [4] = test system: barnyardgrass; experiment: Test C preemergence; type: in vivo, Echinochloa crus-galli
# How it was run: as §1
# [5] = test system: large (Lg) crabgrass; experiment: Test C postemergence; type: in vivo, Digitaria sanguinalis
# How it was run: as §1
# [6] = test system: waterhemp; experiment: Test C preemergence; type: in vivo, Amaranthus rudis
# How it was run: as §1
# [7] = test system: barnyardgrass; experiment: Test B flooded paddy test; type: in vivo, Echinochloa crus-galli; conditions: Flood, 250 g ai/ha, 0 to 100 scale where 0 is no effect and 100 is complete control
# How it was run: (§3)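 Plants were grown to the 2-leaf stage, then pots were flooded to 3 cm above the soil and compounds were applied directly into the paddy water. That depth was held throughout, and after 13 to 15 days in the greenhouse injury was rated visually against controls on a 0–100 scale (0 no effect, 100 complete control).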
# [8] = test system: rice; experiment: Test B flooded paddy test; type: in vivo, Oryza sativa; conditions: Flood, 250 g ai/ha, 0 to 100 scale where 0 is no effect and 100 is complete control
# How it was run: as §3
# [9] = test system: barnyardgrass; experiment: Test A postemergence; type: in vivo, Echinochloa crus-galli; conditions: 0 to 100 scale where 0 is no effect and 100 is complete control
# How it was run: as §2
# [10] = test system: morningglory; experiment: Test C preemergence; type: in vivo, Ipomoea coccinea
# How it was run: as §1
# [11] = test system: pigweed; experiment: Test A preemergence; type: in vivo, Amaranthus retroflexus
# How it was run: as §2
# [12] = test system: pigweed; experiment: Test A postemergence; type: in vivo, Amaranthus retroflexus; conditions: 0 to 100 scale where 0 is no effect and 100 is complete control
# How it was run: as §2
# [13] = test system: blackgrass; experiment: Test C postemergence; type: in vivo, Alopecurus myosuroides
# How it was run: as §1
# [14] = test system: ragweed; experiment: Test C postemergence; type: in vivo, Ambrosia elatior
# How it was run: as §1
# [15] = test system: morningglory; experiment: Test A preemergence; type: in vivo, Ipomoea spp.
# How it was run: as §2
# [16] = 16 g ai/ha, preemergence, scale 0 to 100 (0 no effect, 100 complete control)
# [17] = 62 g ai/ha, preemergence, scale 0 (no effect) to 100 (complete control)
# [18] = 125 g ai/ha, preemergence, scale 0 (no effect) to 100 (complete control)
# [19] = Preemergence, 31 g ai/ha, scale 0 to 100, 0 no effect, 100 complete control
# [20] = 16 g ai/ha, postemergence, visual rating, scale 0 to 100 (0 no effect, 100 complete control), 13 to 15 days
# [21] = 125 g ai/ha, postemergence, visual rating, scale 0 to 100 (0 no effect, 100 complete control)
# [22] = Postemergence, 62 g ai/ha, scale 0 to 100 (0 no effect, 100 complete control)
# [23] = 125 g ai/ha, 0 to 100 scale where 0 is no effect and 100 is complete control
# [24] = 500 g ai/ha, 0 to 100 scale, 0 no effect, 100 complete control, approx. 10 days
smiles,measurement,setting,value
"FC(F)(F)c1cn(-c2ccccc2Oc2ncc(Cl)cn2)nn1 [Compound 166, 5-chloro-2-[2-[4-(trifluoromethyl)-1H-1,2,3-triazol-1-yl]phenoxy]pyrimidine]",plant injury at 16 g/ha,"[1]; Glycine max, pre-emergence, 16 g ai/ha, preemergence, scale 0 to 100 (0 no effect, 100 complete control), read-out: Soybean plant response rating",60%
same,plant injury at 62 g/ha,"[1]; Glycine max, pre-emergence, 62 g ai/ha, preemergence, scale 0 (no effect) to 100 (complete control), read-out: Soybean plant response rating",95%
same,plant injury at 125 g/ha,"[1]; Glycine max, pre-emergence, 125 g ai/ha, preemergence, scale 0 (no effect) to 100 (complete control), read-out: Soybean plant response rating",95%
same,plant injury at 16 g/ha,"[2]; Triticum aestivum, pre-emergence, 16 g ai/ha, preemergence, scale 0 to 100 (0 no effect, 100 complete control), read-out: Wheat plant response rating",0%
same,plant injury at 62 g/ha,"[2]; Triticum aestivum, pre-emergence, 62 g ai/ha, preemergence, scale 0 (no effect) to 100 (complete control), read-out: Wheat plant response rating",60%
same,plant injury at 125 g/ha,"[2]; Triticum aestivum, pre-emergence, 125 g ai/ha, preemergence, scale 0 (no effect) to 100 (complete control), read-out: Wheat plant response rating",90%
same,Velvetleaf plant response rating,[3]; 125 g ai/ha,100
same,pest or weed control at 500 g/ha,"[3]; Abutilon theophrasti, post-emergence, 240 h, 500 g ai/ha, read-out: Plant response rating, Velvetleaf",100%
same,pest or weed control at 16 g/ha,"[4]; Echinochloa crus-galli, pre-emergence, 16 g ai/ha, preemergence, scale 0 to 100 (0 no effect, 100 complete control), read-out: Barnyardgrass plant response rating",85%
same,pest or weed control at 62 g/ha,"[4]; Echinochloa crus-galli, pre-emergence, 62 g ai/ha, preemergence, scale 0 (no effect) to 100 (complete control), read-out: Barnyardgrass plant response rating",100%
same,pest or weed control at 125 g/ha,"[4]; Echinochloa crus-galli, pre-emergence, 125 g ai/ha, preemergence, scale 0 (no effect) to 100 (complete control), read-out: Barnyardgrass plant response rating",100%
same,pest or weed control at 31 g/ha,"[4]; Echinochloa crus-galli, pre-emergence, Preemergence, 31 g ai/ha, scale 0 to 100, 0 no effect, 100 complete control, read-out: Plant response rating, Barnyardgrass",100%
same,pest or weed control at 16 g/ha,"[5]; Digitaria sanguinalis, post-emergence, 16 g ai/ha, postemergence, 0 is no effect, 100 is complete control, read-out: Plant response rating (0 to 100), Crabgrass, Large",5%
same,pest or weed control at 31 g/ha,"[5]; Digitaria sanguinalis, post-emergence, 31 g ai/ha, postemergence, visual rating, scale 0 to 100 (0 no effect, 100 complete control), 13 to 15 days, read-out: Crabgrass, Large plant response rating",5%
same,pest or weed control at 125 g/ha,"[5]; Digitaria sanguinalis, post-emergence, 125 g ai/ha, postemergence, visual rating, scale 0 to 100 (0 no effect, 100 complete control), read-out: Plant response rating, Crabgrass, Large",15%
same,pest or weed control at 62 g/ha,"[5]; Digitaria sanguinalis, post-emergence, Postemergence, 62 g ai/ha, scale 0 to 100 (0 no effect, 100 complete control), read-out: Plant response rating, Crabgrass, Large",10%
same,pest or weed control at 16 g/ha,"[6]; Amaranthus tuberculatus, pre-emergence, 16 g ai/ha, preemergence, scale 0 to 100 (0 no effect, 100 complete control), read-out: Waterhemp plant response rating",100%
same,pest or weed control at 62 g/ha,"[6]; Amaranthus tuberculatus, pre-emergence, 62 g ai/ha, preemergence, scale 0 (no effect) to 100 (complete control), read-out: Waterhemp plant response rating",100%
same,pest or weed control at 125 g/ha,"[6]; Amaranthus tuberculatus, pre-emergence, 125 g ai/ha, preemergence, scale 0 (no effect) to 100 (complete control), read-out: Waterhemp plant response rating",100%
same,pest or weed control at 250 g/ha,"[7]; Echinochloa crus-galli, read-out: Plant response rating, Barnyardgrass",60%
same,plant injury at 250 g/ha,"[8]; Oryza sativa, read-out: Plant response rating, Rice",75%
same,pest or weed control at 125 g/ha,"[9]; Echinochloa crus-galli, post-emergence, 240 h, 125 g ai/ha, read-out: Barnyardgrass plant response rating",90%
same,pest or weed control at 500 g/ha,"[9]; Echinochloa crus-galli, post-emergence, 240 h, 500 g ai/ha, read-out: Plant response rating, Barnyardgrass",100%
same,pest or weed control at 16 g/ha,"[10]; Ipomoea, pre-emergence, 16 g ai/ha, preemergence, scale 0 to 100 (0 no effect, 100 complete control), read-out: Morningglory plant response rating",15%
same,pest or weed control at 62 g/ha,"[10]; Ipomoea, pre-emergence, 62 g ai/ha, preemergence, scale 0 (no effect) to 100 (complete control), read-out: Morningglory plant response rating",98%
same,pest or weed control at 125 g/ha,"[10]; Ipomoea, pre-emergence, 125 g ai/ha, preemergence, scale 0 (no effect) to 100 (complete control), read-out: Morningglory plant response rating",100%
same,Pigweed plant response rating (0 to 100 scale),[11]; 125 g ai/ha,100
same,pest or weed control at 500 g/ha,"[11]; Amaranthus retroflexus, pre-emergence, 240 h, 500 g ai/ha, 0 to 100 scale where 0 is no effect and 100 is complete control, read-out: Pigweed plant response rating",100%
same,pest or weed control at 500 g/ha,"[12]; Amaranthus retroflexus, post-emergence, 500 g ai/ha, read-out: Plant response rating, Pigweed",100%
same,pest or weed control at 125 g/ha,"[12]; Amaranthus retroflexus, post-emergence, 240 h, 125 g ai/ha, read-out: Pigweed plant response rating",100%
same,pest or weed control at 16 g/ha,"[13]; Alopecurus myosuroides, post-emergence, 16 g ai/ha, postemergence, 0 is no effect, 100 is complete control, read-out: Plant response rating (0 to 100), Blackgrass",5%
same,pest or weed control at 31 g/ha,"[13]; Alopecurus myosuroides, post-emergence, 31 g ai/ha, postemergence, visual rating, scale 0 to 100 (0 no effect, 100 complete control), 13 to 15 days, read-out: Blackgrass plant response rating",10%
same,pest or weed control at 125 g/ha,"[13]; Alopecurus myosuroides, post-emergence, 125 g ai/ha, postemergence, visual rating, scale 0 to 100 (0 no effect, 100 complete control), read-out: Plant response rating, Blackgrass",60%
same,pest or weed control at 62 g/ha,"[13]; Alopecurus myosuroides, post-emergence, Postemergence, 62 g ai/ha, scale 0 to 100 (0 no effect, 100 complete control), read-out: Plant response rating, Blackgrass",45%
same,Ragweed plant response rating,"[14]; 31 g ai/ha, postemergence, visual rating, scale 0 to 100 (0 no effect, 100 complete control), 13 to 15 days",45
same,pest or weed control at 16 g/ha,"[14]; Ambrosia artemisiifolia, post-emergence, 16 g ai/ha, postemergence, 0 is no effect, 100 is complete control, read-out: Plant response rating (0 to 100), Ragweed",35%
same,pest or weed control at 125 g/ha,"[14]; Ambrosia artemisiifolia, post-emergence, 125 g ai/ha, postemergence, visual rating, scale 0 to 100 (0 no effect, 100 complete control), read-out: Plant response rating, Ragweed",80%
same,pest or weed control at 62 g/ha,"[14]; Ambrosia artemisiifolia, post-emergence, Postemergence, 62 g ai/ha, scale 0 to 100 (0 no effect, 100 complete control), read-out: Plant response rating, Ragweed",60%
same,Morningglory plant response rating (0 to 100 scale),[15]; 125 g ai/ha,100
same,pest or weed control at 500 g/ha,"[15]; Ipomoea, pre-emergence, 240 h, 500 g ai/ha, 0 to 100 scale where 0 is no effect and 100 is complete control, read-out: Morningglory plant response rating",100%
N#Cc1cnn(-c2c(C#N)cccc2Oc2ncc(F)cn2)c1 [Compound 111],Soybean plant response rating,[1]; [16],30
same,Soybean plant response rating,[1]; [17],80
same,Soybean plant response rating,[1]; [18],95
same,"Plant response rating, Soybean",[1]; [19],60
same,Wheat plant response rating,[2]; [16],0
same,Wheat plant response rating,[2]; [17],0
same,Wheat plant response rating,[2]; [18],20
same,"Plant response rating, Wheat",[2]; [19],30
same,"Plant response rating, Velvetleaf",[3]; 500 g ai/ha,100
same,Barnyardgrass plant response rating,[4]; [16],5
same,Barnyardgrass plant response rating,[4]; [17],90
same,Barnyardgrass plant response rating,[4]; [18],100
same,"Plant response rating, Barnyardgrass",[4]; [19],55
same,"Crabgrass, Large plant response rating",[5]; [20],5
same,"Plant response rating, Crabgrass, Large",[5]; [21],35
same,"Plant response rating, Crabgrass, Large",[5]; [22],10
same,Waterhemp plant response rating,[6]; [16],100
same,Waterhemp plant response rating,[6]; [17],100
same,Waterhemp plant response rating,[6]; [18],100
same,"Plant response rating, Waterhemp",[6]; [19],100
same,"Plant response rating, Barnyardgrass",[7],0
same,"Plant response rating, Rice",[8],0
same,"Plant response rating, Barnyardgrass",[9]; 125 g ai/ha,60
same,"Plant response rating, Barnyardgrass",[9]; 500 g ai/ha,90
same,Morningglory plant response rating,[10]; [16],20
same,Morningglory plant response rating,[10]; [17],85
same,Morningglory plant response rating,[10]; [18],100
same,"Plant response rating, Morningglory",[10]; [19],45
same,"Plant response rating, Pigweed",[11]; [23],100
same,Pigweed plant response rating,[11]; [24],100
same,"Plant response rating, Pigweed",[12]; 500 g ai/ha,100
same,Blackgrass plant response rating,[13]; [20],0
same,"Plant response rating, Blackgrass",[13]; [21],10
same,"Plant response rating, Blackgrass","[13]; Postemergence, 31 g ai/ha, scale 0 to 100 (0 no effect, 100 complete control), 13 to 15 days",0
same,"Plant response rating, Blackgrass",[13]; [22],5
same,"Plant response rating, Ragweed",[14]; [21],90
same,"Plant response rating, Ragweed",[14]; [22],70
same,"Plant response rating, Morningglory",[15]; [23],90
same,Morningglory plant response rating,[15]; [24],100
